# Experimental data as given in US11541022B2, “Methods and compositions for the treatment of neurological diseases and syndromes of aging” (priority 2018, dated 2023).
# What was measured:
# [1] = cited from earlier work; for half-life: stated in words
# [2] = mice, intraperitoneal injection; cited from earlier work
# [3] = system: epigenetic age (methylation patterns of gene markers from buccal cells); test: Epigenetic age tests in AR (Age Regression) trials of the stem cell regime; format: in vivo, human
# Text: Test subject's epigenetic age results are summarized below in the table of AR (Age Regression) trials: The second column of Table 1 reports the difference between epigenetic and chronological age; the third column reports the weeks of treatment, wherein there was at least one fusion cycle per week and generally two […] cycles initially, decreasing to the end of this period to one treatment every week or two; the fourth column reports the total elapsed time from baseline; the fifth column reports the regimes used; and the sixth column reports the nutritional cocktails. Several companies are presently offering epigenetic tests that purport to give epigenetic age that generally closely correlates with chronological age. The subject had taken a test offered by Osiris Green two months prior beginning treatment. […] This was in spite of their prior use of C60 for several years outside of the regime. […] This was far outside the expected range. […] It appears that using a demethylase promoter during stem cell stimulation produces a far more rapid decline in epigenetic age, as removing aberrant methylation is easiest during cell division. The epigenetic testing labs used—Osirus Green, TrueMe, EpiAging and Epimorphy—all used different sets of genes, yet results were within a few years for samples taken at the same time. […] It was initially hypothesized that any negative impact would be minimal if used only with mitochondrial switches, but the telomeres of rapidly dividing TACs were likely also lengthened, and this blocked TAC senescence and replacement. Since TACs divide frequently, they also experience rapid epigenetic aging, thus somatic cells derived from TACs with telomeres extended by an agonist reach higher epigenetic age that would ordinarily be possible.
# [4] = Trial of L-Dopa with C60 and mitochondrial fusion; format: in vivo, human; details: one subject
# Description: In some embodiments, the amino acid L-Dopa is administered with a mitochondrial fusion promoter to stimulate the proliferation of SCs. In some embodiments it is used with C60 and/or with a demethylase promoter. In some embodiments it is used with glutamine. […] Treatment with L-Dopa may be combined with 5-HTP and/or SRIs for a full spectrum effect.
smiles,measurement,setting,value
"O=C1c2c(O)cc(O)cc2O[C@H](c2cc(O)c(O)c(O)c2)[C@H]1O [dihydromyricetin, Dihydromyricetin]",time to elimination from the body,[1]; Liu et al. 2019,about 12 hours
CCCCCCCCCCCCCCCCCC(=O)O [stearic acid],half-life,[1],ten to twelve hours
C[S+]([O-])CCCCN=C=S (stereo not shown) [sulforaphane],time to peak in the bloodstream,[1]; in vivo,≥ 15 min
same,half-life,[1],about an hour
same,duration of activity,[2],approximately sixty minutes
same,time to maximum activity,[2],15 min
Oc1ccc(C=Cc2cc(O)cc(O)c2)cc1 [resveratrol],epigenetic age below chronological age,"[3]; 300 mg of resveratrol one hour before C60, one treatment per week for 8 weeks",14.6 years
"CC(C)(O)[C@@H]1CC[C@](C)([C@H]2[C@@H](O)C[C@@]3(C)[C@@H]4C[C@H](O)[C@H]5C(C)(C)[C@@H](O)CC[C@@]56C[C@@]46CC[C@]23C)O1 [cycloasragenol, cycloastragenol]",effect on epigenetic age,[3]; telomere agonist every fourth treatment,did not show the same negative effects
same,effect on epigenetic age,[3]; telomere agonist with every C60/mitochondrial switches treatment,rapidly increase epigenetic age
"N[C@@H](Cc1ccc(O)c(O)c1)C(=O)O [L-Dopa, Levodopa]",tremors,[4],eliminated tremors
